# PubChem BioAssay AID2060901 (Molecular Pharmacology Branch, DTP, NCI, 2025)
# Test system: 422866-222-R5-J1-PDC complex spheroids viability
# Experiment: Anticancer human tumor 422866-222-R5-J1-PDC patient-derived pancreatic adenocarcinoma cell line growth inhibition [RAS]
# Conditions: for IC50: curve of first compound; for viability, T/C: stronger effect = lower value
# Summary of the method: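 Agents were tested in combination matrices in half-log decrements from a top concentration at or near clinical Cmax (10 microM if undetermined). Targets were multi-cell spheroids of tumour lines plus HUVEC and MSC stromal cells.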
# [1] = second compound 0.000949 µM, first compound 0.0316 µM
# [2] = second compound 0.000949 µM, first compound 0.1 µM
# [3] = second compound 0.000949 µM, first compound 0.316 µM
# [4] = second compound 0.000949 µM, first compound 1 µM
# [5] = second compound 0.000949 µM, first compound 3.16 µM
# [6] = second compound 0.000949 µM, first compound 10 µM
# [7] = second compound 0.003 µM, first compound 0.0316 µM
# [8] = second compound 0.003 µM, first compound 0.1 µM
# [9] = second compound 0.003 µM, first compound 0.316 µM
# [10] = second compound 0.003 µM, first compound 1 µM
# [11] = second compound 0.003 µM, first compound 3.16 µM
# [12] = second compound 0.003 µM, first compound 10 µM
# [13] = second compound 0.00949 µM, first compound 0.0316 µM
# [14] = second compound 0.00949 µM, first compound 0.1 µM
# [15] = second compound 0.00949 µM, first compound 0.316 µM
# [16] = second compound 0.00949 µM, first compound 1 µM
# [17] = second compound 0.00949 µM, first compound 3.16 µM
# [18] = second compound 0.00949 µM, first compound 10 µM
# [19] = second compound 0.03 µM, first compound 0.0316 µM
# [20] = second compound 0.03 µM, first compound 0.1 µM
# [21] = second compound 0.03 µM, first compound 0.316 µM
# [22] = second compound 0.03 µM, first compound 1 µM
# [23] = second compound 0.03 µM, first compound 3.16 µM
# [24] = second compound 0.03 µM, first compound 10 µM
# [25] = second compound 0.0949 µM, first compound 0.0316 µM
# [26] = second compound 0.0949 µM, first compound 0.1 µM
# [27] = second compound 0.0949 µM, first compound 0.316 µM
# [28] = second compound 0.0949 µM, first compound 1 µM
# [29] = second compound 0.0949 µM, first compound 3.16 µM
# [30] = second compound 0.0949 µM, first compound 10 µM
# [31] = second compound 0.3 µM, first compound 0.0316 µM
# [32] = second compound 0.3 µM, first compound 0.1 µM
# [33] = second compound 0.3 µM, first compound 0.316 µM
# [34] = second compound 0.3 µM, first compound 1 µM
# [35] = second compound 0.3 µM, first compound 3.16 µM
# [36] = second compound 0.3 µM, first compound 10 µM
# 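Note: spheroids exposed to compounds for 7 days.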
# 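Throughout, for viability, T/C: 100% = DMSO vehicle control viability.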
structure (smiles),measurement,setting,value
CC(=O)OC12COC1CC(O)C1(C)C(=O)C(O)C3=C(C)C(OC(=O)C(O)C(NC(=O)OC(C)(C)C)c4ccccc4)CC(O)(C(OC(=O)c4ccccc4)C21)C3(C)C (stereo unspecified) + CCn1c(-c2cc(N3CCN(C)CC3)cnc2C(C)OC)c2c3cc(ccc31)-c1csc(n1)CC(NC(=O)C1CC1C)C(=O)N1CCCC(N1)C(=O)OCC(C)(C)C2,IC50,second compound 0.000949 µM,< 31.6 nM
same,IC50,second compound 0.003 µM,< 31.6 nM
same,IC50,second compound 0.00949 µM,< 31.6 nM
same,IC50,second compound 0.03 µM,< 31.6 nM
same,IC50,second compound 0.0949 µM,< 31.6 nM
same,IC50,second compound 0.3 µM,< 31.6 nM
same,"viability, T/C",[1],23.3%
same,"viability, T/C",[2],25.6%
same,"viability, T/C",[3],26.9%
same,"viability, T/C",[4],31.8%
same,"viability, T/C",[5],29.4%
same,"viability, T/C",[6],23.2%
same,"viability, T/C",[7],18.8%
same,"viability, T/C",[8],19.6%
same,"viability, T/C",[9],18.6%
same,"viability, T/C",[10],20.6%
same,"viability, T/C",[11],21.5%
same,"viability, T/C",[12],20.5%
same,"viability, T/C",[13],14.5%
same,"viability, T/C",[14],15.8%
same,"viability, T/C",[15],16.4%
same,"viability, T/C",[16],17.7%
same,"viability, T/C",[17],17.3%
same,"viability, T/C",[18],18.3%
same,"viability, T/C",[19],16.3%
same,"viability, T/C",[20],18.6%
same,"viability, T/C",[21],16.1%
same,"viability, T/C",[22],17%
same,"viability, T/C",[23],16.9%
same,"viability, T/C",[24],19.4%
same,"viability, T/C",[25],17.9%
same,"viability, T/C",[26],16.5%
same,"viability, T/C",[27],18.7%
same,"viability, T/C",[28],17.8%
same,"viability, T/C",[29],17%
same,"viability, T/C",[30],22.1%
same,"viability, T/C",[31],16.7%
same,"viability, T/C",[32],17.1%
same,"viability, T/C",[33],18.4%
same,"viability, T/C",[34],17.8%
same,"viability, T/C",[35],19.9%
same,"viability, T/C",[36],21.5%
NC1c2ccccc2OC12CCN(c1cnc3c(N4CCCc5ncccc54)n[nH]c3n1)CC2 (stereo unspecified) + C=CC(=O)N1CCN(c2nc(OCC3CCCN3C)nc3c(F)c(-c4nc(N)cc(C)c4C(F)(F)F)c(Cl)cc23)C(C)C1,IC50,second compound 0.00316 µM,< 31.6 nM
same,IC50,second compound 0.01 µM,< 31.6 nM
same,IC50,second compound 0.0316 µM,< 31.6 nM
same,IC50,second compound 0.1 µM,< 31.6 nM
same,IC50,second compound 0.316 µM,< 31.6 nM
same,IC50,second compound 1 µM,< 31.6 nM
same,"viability, T/C","second compound 0.00316 µM, first compound 0.0316 µM",21.3%
same,"viability, T/C","second compound 0.00316 µM, first compound 0.1 µM",17.9%
same,"viability, T/C","second compound 0.00316 µM, first compound 0.316 µM",18.1%
same,"viability, T/C","second compound 0.00316 µM, first compound 1 µM",16.3%
same,"viability, T/C","second compound 0.00316 µM, first compound 3.16 µM",13.4%
same,"viability, T/C","second compound 0.00316 µM, first compound 10 µM",16.3%
same,"viability, T/C","second compound 0.01 µM, first compound 0.0316 µM",20.1%
same,"viability, T/C","second compound 0.01 µM, first compound 0.1 µM",17.6%
same,"viability, T/C","second compound 0.01 µM, first compound 0.316 µM",13.2%
same,"viability, T/C","second compound 0.01 µM, first compound 1 µM",16.3%
same,"viability, T/C","second compound 0.01 µM, first compound 3.16 µM",15.4%
same,"viability, T/C","second compound 0.01 µM, first compound 10 µM",16.6%
same,"viability, T/C","second compound 0.0316 µM, first compound 0.0316 µM",20.4%
same,"viability, T/C","second compound 0.0316 µM, first compound 0.1 µM",18.5%
same,"viability, T/C","second compound 0.0316 µM, first compound 0.316 µM",13.9%
same,"viability, T/C","second compound 0.0316 µM, first compound 1 µM",14.5%
same,"viability, T/C","second compound 0.0316 µM, first compound 3.16 µM",15.9%
same,"viability, T/C","second compound 0.0316 µM, first compound 10 µM",14.8%
same,"viability, T/C","second compound 0.1 µM, first compound 0.0316 µM",18.3%
same,"viability, T/C","second compound 0.1 µM, first compound 0.1 µM",15.1%
same,"viability, T/C","second compound 0.1 µM, first compound 0.316 µM",15.3%
same,"viability, T/C","second compound 0.1 µM, first compound 1 µM",12.8%
same,"viability, T/C","second compound 0.1 µM, first compound 3.16 µM",16.3%
same,"viability, T/C","second compound 0.1 µM, first compound 10 µM",14.2%
same,"viability, T/C","second compound 0.316 µM, first compound 0.0316 µM",18.4%
same,"viability, T/C","second compound 0.316 µM, first compound 0.1 µM",16.6%
same,"viability, T/C","second compound 0.316 µM, first compound 0.316 µM",14.5%
same,"viability, T/C","second compound 0.316 µM, first compound 1 µM",13.6%
same,"viability, T/C","second compound 0.316 µM, first compound 3.16 µM",14.2%
same,"viability, T/C","second compound 0.316 µM, first compound 10 µM",12.9%
same,"viability, T/C","second compound 1 µM, first compound 0.0316 µM",18.7%
same,"viability, T/C","second compound 1 µM, first compound 0.1 µM",14.1%
same,"viability, T/C","second compound 1 µM, first compound 0.316 µM",16.4%
same,"viability, T/C","second compound 1 µM, first compound 1 µM",15.8%
same,"viability, T/C","second compound 1 µM, first compound 3.16 µM",14.9%
same,"viability, T/C","second compound 1 µM, first compound 10 µM",15.9%
CC(=O)OC12COC1CC(O)C1(C)C(=O)C(O)C3=C(C)C(OC(=O)C(O)C(NC(=O)OC(C)(C)C)c4ccccc4)CC(O)(C(OC(=O)c4ccccc4)C21)C3(C)C (stereo unspecified) + CCn1c(-c2cccnc2C(C)OC)c2c3cc(ccc31)N1CCOC(CC(NC(=O)C(C(C)C)N(C)C(=O)C3(F)CCN(C(=O)C#CC(C)(C)N(C)C)CC3)C(=O)N3CCCC(N3)C(=O)OCC(C)(C)C2)C1,IC50,second compound 0.000949 µM,< 31.6 nM
same,IC50,second compound 0.003 µM,< 31.6 nM
same,IC50,second compound 0.00949 µM,< 31.6 nM
same,IC50,second compound 0.03 µM,< 31.6 nM
same,IC50,second compound 0.0949 µM,< 31.6 nM
same,IC50,second compound 0.3 µM,< 31.6 nM
same,"viability, T/C",[1],23.9%
same,"viability, T/C",[2],23.8%
same,"viability, T/C",[3],25.8%
same,"viability, T/C",[4],27.3%
same,"viability, T/C",[5],26.3%
same,"viability, T/C",[6],25.9%
same,"viability, T/C",[7],19.9%
same,"viability, T/C",[8],19.6%
same,"viability, T/C",[9],19%
same,"viability, T/C",[10],21.1%
same,"viability, T/C",[11],19.8%
same,"viability, T/C",[12],21.1%
same,"viability, T/C",[13],19.9%
same,"viability, T/C",[14],19%
same,"viability, T/C",[15],20.1%
same,"viability, T/C",[16],21.5%
same,"viability, T/C",[17],22.5%
same,"viability, T/C",[18],19.6%
same,"viability, T/C",[19],15.4%
same,"viability, T/C",[20],19.2%
same,"viability, T/C",[21],21.6%
same,"viability, T/C",[22],19%
same,"viability, T/C",[23],21.3%
same,"viability, T/C",[24],23.9%
same,"viability, T/C",[25],14.5%
same,"viability, T/C",[26],16.5%
same,"viability, T/C",[27],15.3%
same,"viability, T/C",[28],16.4%
same,"viability, T/C",[29],21.6%
same,"viability, T/C",[30],20.9%
same,"viability, T/C",[31],16.2%
same,"viability, T/C",[32],17.9%
same,"viability, T/C",[33],17.6%
same,"viability, T/C",[34],16.8%
same,"viability, T/C",[35],18.4%
same,"viability, T/C",[36],19.9%
